Source: patent publication US20060171969A1, “Oral pharmaceutical forms of liquid drugs having improved bioavailability” (priority 2002, published 2006)

Assay: In man pharmacokinetics of oral NO-diclofenac sachets (plasma, LC/MS/MS)
Assay type: in vivo
Details: 75, 100 and 150 mg sachets of example 2, oral; 0.25-32 h
Experimental: In man evaluation of pharmacokinetic and pharmacodynamic parameters of the oral NO-diclofenac formulation described in example 2 (sachets).
Six healthy fastened patients were administered with 75, 100 and 150 mg NO-Diclofenac sachets formulated as described in example 2.
In order to evaluate the pharmacokinetic parameters, blood samples were taken at 0.25, 0.5, 1, 2, 3, 4, 5, 6, 8, 10, 12, 16, 24 and 32 hours after administration of the pharmaceutical formulation. The active ingredient NO-diclofenac and its metabolites diclofenac and the hydroxyderivative 4-OH-diclofenac were dosed in plasma by a LC/MS/MS method, previously validated. NO-diclofenac was not found in the samples at any dosage. The pharmacokinetic parameters of plasma levels obtained for diclofenac (D) and the 4-hydroxydiclofenac (40H-Diclofenac, 40H-D) are reported in Table 2.

## O=C(Cc1ccccc1Nc1c(Cl)cccc1Cl)OCCCCO[N+](=O)[O-] [NO-diclofenac, 2-[(2,6-dichlorophenyl)amino]benzeneacetic acid 4-(nitrooxy)butyl ester]
  NO-diclofenac (unchanged) in plasma samples: not found
